Laboratory results published in the kinase profiling compilation of Christmann-Franck et al. (2016).

Legend:
Assay in all cases: KINOMEscan competition binding
Conditions in all cases: compound 10.0 µM
BRSK2 (human) = BRSK2 (human) (UniProt Q8IWQ3)
MAP4K4 (human) = MAP4K4 (human) (UniProt O95819)
EPHA4 (human) = EPHA4 (human) (UniProt P54764)
ROS1 (human) = ROS1 (human) (UniProt P08922)
MAPK8 (human) = MAPK8 (human) (UniProt P45983)
FYN (human) = FYN (human) (UniProt P06241)
ULK1 (human) = ULK1 (human) (UniProt O75385)
[1] = system: FLT3 (human), P36888 [D835H]
MARK4 (human) = MARK4 (human) (UniProt Q96L34)
MARK4 (human), sequence (Q96L34 whole entry, looked up): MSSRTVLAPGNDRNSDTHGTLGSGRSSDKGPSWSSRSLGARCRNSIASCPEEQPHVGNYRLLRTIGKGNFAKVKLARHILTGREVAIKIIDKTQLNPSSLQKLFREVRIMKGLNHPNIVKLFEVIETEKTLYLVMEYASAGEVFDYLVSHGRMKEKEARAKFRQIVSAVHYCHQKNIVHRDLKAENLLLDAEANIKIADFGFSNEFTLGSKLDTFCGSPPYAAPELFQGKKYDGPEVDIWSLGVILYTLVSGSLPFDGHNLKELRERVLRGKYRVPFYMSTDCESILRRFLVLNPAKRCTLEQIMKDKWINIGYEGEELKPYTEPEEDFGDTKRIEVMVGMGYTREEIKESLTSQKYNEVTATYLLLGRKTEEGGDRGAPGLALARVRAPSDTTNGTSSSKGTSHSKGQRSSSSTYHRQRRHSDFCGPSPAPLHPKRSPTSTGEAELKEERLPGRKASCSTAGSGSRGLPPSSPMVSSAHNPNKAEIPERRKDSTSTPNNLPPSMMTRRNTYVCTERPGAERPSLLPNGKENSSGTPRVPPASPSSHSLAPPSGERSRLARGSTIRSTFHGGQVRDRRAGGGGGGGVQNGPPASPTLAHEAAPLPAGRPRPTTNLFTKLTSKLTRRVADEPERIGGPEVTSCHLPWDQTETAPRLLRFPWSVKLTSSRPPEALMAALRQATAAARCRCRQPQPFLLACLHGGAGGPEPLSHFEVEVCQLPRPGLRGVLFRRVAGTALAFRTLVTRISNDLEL

PRKACB (human) = PRKACB (human) (UniProt P22694)
TNIK (human) = TNIK (human) (UniProt Q9UKE5)
SLK (human) = SLK (human) (UniProt Q9H2G2)
SLK (human), sequence (Q9H2G2 whole entry, looked up): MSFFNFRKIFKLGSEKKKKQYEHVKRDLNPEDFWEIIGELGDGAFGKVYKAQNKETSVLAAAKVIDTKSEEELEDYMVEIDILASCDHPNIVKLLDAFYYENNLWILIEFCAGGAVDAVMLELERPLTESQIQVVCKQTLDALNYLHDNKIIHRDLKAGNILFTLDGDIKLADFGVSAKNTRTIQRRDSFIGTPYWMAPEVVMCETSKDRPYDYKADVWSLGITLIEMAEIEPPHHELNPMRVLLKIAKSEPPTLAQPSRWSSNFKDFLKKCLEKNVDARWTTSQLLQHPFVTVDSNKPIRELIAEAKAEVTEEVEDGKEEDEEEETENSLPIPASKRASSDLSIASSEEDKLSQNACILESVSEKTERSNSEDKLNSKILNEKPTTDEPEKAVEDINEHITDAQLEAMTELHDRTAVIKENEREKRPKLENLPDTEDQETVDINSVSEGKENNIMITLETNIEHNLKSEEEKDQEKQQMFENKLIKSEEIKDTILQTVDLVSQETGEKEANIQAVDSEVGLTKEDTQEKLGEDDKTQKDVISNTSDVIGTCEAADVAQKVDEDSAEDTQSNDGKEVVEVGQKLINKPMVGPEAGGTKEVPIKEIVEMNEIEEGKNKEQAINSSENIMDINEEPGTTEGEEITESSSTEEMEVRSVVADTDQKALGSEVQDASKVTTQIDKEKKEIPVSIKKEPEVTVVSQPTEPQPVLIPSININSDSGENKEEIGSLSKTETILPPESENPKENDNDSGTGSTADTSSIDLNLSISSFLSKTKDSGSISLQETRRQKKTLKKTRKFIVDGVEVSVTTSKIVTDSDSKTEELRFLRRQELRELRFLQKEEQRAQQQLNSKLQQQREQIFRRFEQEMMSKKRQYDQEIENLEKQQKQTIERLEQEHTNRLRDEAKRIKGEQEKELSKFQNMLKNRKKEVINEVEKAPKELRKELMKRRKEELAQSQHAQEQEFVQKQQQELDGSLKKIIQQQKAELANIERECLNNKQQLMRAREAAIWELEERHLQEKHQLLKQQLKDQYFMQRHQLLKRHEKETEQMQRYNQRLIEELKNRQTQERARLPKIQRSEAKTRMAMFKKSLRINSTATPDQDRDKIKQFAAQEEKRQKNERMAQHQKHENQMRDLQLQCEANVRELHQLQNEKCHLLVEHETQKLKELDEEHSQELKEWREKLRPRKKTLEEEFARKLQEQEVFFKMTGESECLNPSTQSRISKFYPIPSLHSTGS

FGFR1 (human) = FGFR1 (human) (UniProt P11362)
TESK1 (human) = TESK1 (human) (UniProt Q15569)
ACVR2A (human) = ACVR2A (human) (UniProt P27037)
ITK (human) = ITK (human) (UniProt Q08881)
PKN1 (human) = PKN1 (human) (UniProt Q16512)
PKN1 (human), sequence (Q16512 whole entry, looked up): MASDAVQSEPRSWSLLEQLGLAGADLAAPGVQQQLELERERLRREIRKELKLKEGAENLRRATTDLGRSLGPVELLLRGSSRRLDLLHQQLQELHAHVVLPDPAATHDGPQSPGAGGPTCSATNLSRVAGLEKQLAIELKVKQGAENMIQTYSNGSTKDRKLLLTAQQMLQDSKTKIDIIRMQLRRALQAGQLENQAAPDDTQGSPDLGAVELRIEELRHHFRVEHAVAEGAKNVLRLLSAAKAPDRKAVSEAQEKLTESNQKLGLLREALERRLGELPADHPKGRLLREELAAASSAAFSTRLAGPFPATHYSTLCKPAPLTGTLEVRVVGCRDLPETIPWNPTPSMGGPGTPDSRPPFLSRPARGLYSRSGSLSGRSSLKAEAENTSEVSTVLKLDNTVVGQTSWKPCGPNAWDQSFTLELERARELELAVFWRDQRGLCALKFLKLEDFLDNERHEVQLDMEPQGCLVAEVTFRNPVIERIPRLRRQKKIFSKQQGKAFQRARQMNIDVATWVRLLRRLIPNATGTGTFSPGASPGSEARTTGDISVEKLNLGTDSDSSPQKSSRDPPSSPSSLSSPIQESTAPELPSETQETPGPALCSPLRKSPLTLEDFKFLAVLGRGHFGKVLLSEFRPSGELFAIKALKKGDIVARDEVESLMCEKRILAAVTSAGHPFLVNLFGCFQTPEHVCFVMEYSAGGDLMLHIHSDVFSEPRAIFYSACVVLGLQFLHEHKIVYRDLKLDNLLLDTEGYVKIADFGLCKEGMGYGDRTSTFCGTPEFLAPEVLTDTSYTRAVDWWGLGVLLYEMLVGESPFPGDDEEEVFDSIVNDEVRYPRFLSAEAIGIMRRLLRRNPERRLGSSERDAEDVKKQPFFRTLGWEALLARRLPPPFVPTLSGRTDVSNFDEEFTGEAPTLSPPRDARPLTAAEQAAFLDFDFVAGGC

RIOK3 (human) = RIOK3 (human) (UniProt O14730)
CDC42BPA (human) = CDC42BPA (human) (UniProt Q5VT25)
PLK4 (human) = PLK4 (human) (UniProt O00444)
TXK (human) = TXK (human) (UniProt P42681)
HIPK3 (human) = HIPK3 (human) (UniProt Q9H422)
MAP2K6 (human) = MAP2K6 (human) (UniProt P52564)
SYK (human) = SYK (human) (UniProt P43405)
MAP4K3 (human) = MAP4K3 (human) (UniProt Q8IVH8)
LYN (human) = LYN (human) (UniProt P07948)
MINK1 (human) = MINK1 (human) (UniProt Q8N4C8)
CSNK1E (human) = CSNK1E (human) (UniProt P49674)
GRK4 (human) = GRK4 (human) (UniProt P32298)
PTK2 (human) = PTK2 (human) (UniProt Q05397)
NEK5 (human) = NEK5 (human) (UniProt Q6P3R8)
RAF1 (human) = RAF1 (human) (UniProt P04049)
[2] = system: RET (human), P07949 [V804M]
CDKL2 (human) = CDKL2 (human) (UniProt Q92772)
TNK1 (human) = TNK1 (human) (UniProt Q13470)
PRKACA (human) = PRKACA (human) (UniProt P17612)
CDK15 (human) = CDK15 (human) (UniProt Q96Q40)
FGFR4 (human) = FGFR4 (human) (UniProt P22455)
FGFR4 (human), sequence (P22455 whole entry, looked up): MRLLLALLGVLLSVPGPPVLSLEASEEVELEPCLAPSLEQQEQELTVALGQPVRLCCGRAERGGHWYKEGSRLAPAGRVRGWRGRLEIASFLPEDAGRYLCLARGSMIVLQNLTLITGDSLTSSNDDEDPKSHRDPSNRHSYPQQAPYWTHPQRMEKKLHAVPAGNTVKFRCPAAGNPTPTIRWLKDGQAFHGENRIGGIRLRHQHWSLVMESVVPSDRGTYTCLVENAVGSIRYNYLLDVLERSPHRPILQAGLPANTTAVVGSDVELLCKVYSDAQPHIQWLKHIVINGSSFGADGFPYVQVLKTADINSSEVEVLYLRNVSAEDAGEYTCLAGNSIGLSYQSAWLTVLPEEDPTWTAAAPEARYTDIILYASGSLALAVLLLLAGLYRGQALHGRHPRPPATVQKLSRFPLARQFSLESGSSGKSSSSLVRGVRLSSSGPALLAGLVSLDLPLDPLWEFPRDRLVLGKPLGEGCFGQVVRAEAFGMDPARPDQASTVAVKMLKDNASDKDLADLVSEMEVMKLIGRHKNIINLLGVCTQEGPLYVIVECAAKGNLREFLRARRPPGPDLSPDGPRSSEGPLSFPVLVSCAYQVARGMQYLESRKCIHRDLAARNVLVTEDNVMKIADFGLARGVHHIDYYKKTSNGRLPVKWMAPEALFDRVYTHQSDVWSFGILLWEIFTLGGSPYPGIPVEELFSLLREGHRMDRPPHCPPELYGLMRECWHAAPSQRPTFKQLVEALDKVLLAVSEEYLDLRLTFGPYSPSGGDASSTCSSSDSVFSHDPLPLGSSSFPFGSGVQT

PAK1 (human) = PAK1 (human) (UniProt Q13153)
MYO3B (human) = MYO3B (human) (UniProt Q8WXR4)

MAP4K4 (human), sequence (O95819 whole entry, looked up): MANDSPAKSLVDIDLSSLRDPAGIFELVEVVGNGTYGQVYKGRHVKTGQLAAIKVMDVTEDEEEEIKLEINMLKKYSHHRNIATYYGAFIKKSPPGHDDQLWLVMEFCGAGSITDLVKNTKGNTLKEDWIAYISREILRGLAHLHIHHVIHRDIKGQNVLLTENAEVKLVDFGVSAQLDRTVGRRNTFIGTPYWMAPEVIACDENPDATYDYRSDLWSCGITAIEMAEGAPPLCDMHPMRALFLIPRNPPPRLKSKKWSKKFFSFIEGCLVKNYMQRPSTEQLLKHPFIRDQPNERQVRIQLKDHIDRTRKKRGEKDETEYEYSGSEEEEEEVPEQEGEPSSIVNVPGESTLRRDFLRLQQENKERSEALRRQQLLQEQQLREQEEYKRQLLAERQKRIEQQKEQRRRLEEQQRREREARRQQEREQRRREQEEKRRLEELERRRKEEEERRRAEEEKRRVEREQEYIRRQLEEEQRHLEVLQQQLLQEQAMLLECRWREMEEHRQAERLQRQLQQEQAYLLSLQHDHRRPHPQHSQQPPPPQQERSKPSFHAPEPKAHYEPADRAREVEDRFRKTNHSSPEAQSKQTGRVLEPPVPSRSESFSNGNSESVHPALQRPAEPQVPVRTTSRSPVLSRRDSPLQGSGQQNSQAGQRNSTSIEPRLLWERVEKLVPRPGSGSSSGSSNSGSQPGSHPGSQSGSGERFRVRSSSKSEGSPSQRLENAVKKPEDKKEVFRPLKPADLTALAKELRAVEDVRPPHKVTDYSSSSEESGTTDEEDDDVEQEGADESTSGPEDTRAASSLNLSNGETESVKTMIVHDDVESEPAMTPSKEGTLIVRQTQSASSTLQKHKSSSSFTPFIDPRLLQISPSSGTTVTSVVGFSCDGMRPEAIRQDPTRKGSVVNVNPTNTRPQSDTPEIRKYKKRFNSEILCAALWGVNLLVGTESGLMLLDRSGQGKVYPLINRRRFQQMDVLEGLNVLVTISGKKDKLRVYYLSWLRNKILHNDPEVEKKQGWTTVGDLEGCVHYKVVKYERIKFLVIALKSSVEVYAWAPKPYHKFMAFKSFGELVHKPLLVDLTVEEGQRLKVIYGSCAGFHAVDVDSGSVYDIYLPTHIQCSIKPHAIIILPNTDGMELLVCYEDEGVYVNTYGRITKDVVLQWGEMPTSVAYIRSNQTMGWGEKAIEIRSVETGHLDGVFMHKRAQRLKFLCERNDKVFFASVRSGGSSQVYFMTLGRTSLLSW

Structure (SMILES): CCN(CC)CCCCNc1ncc2c(n1)N(C)C(=O)N(c1c(Cl)c(OC)cc(OC)c1Cl)C2
- kinase still bound, per cent of control (BRSK2 (human)): 100%
- kinase still bound, per cent of control (MAP4K4 (human)): 100%
- kinase still bound, per cent of control (EPHA4 (human)): 100%
- kinase still bound, per cent of control (ROS1 (human)): 100%
- kinase still bound, per cent of control (MAPK8 (human)): 100%
- kinase still bound, per cent of control (FYN (human)): 100%
- kinase still bound, per cent of control (ULK1 (human)): 100%
- kinase still bound, per cent of control [1]: 100%
- kinase still bound, per cent of control (MARK4 (human)): 100%
- kinase still bound, per cent of control (PRKACB (human)): 100%
- kinase still bound, per cent of control (TNIK (human)): 100%
- kinase still bound, per cent of control (SLK (human)): 100%
- kinase still bound, per cent of control (FGFR1 (human)): 0.25%
- kinase still bound, per cent of control (TESK1 (human)): 100%
- kinase still bound, per cent of control (ACVR2A (human)): 100%
- kinase still bound, per cent of control (ITK (human)): 100%
- kinase still bound, per cent of control (PKN1 (human)): 100%
- kinase still bound, per cent of control (RIOK3 (human)): 100%
- kinase still bound, per cent of control (CDC42BPA (human)): 100%
- kinase still bound, per cent of control (PLK4 (human)): 100%
- kinase still bound, per cent of control (TXK (human)): 100%
- kinase still bound, per cent of control (HIPK3 (human)): 100%
- kinase still bound, per cent of control (MAP2K6 (human)): 100%
- kinase still bound, per cent of control (SYK (human)): 100%
- kinase still bound, per cent of control (MAP4K3 (human)): 100%
- kinase still bound, per cent of control (LYN (human)): 34%
- kinase still bound, per cent of control (MINK1 (human)): 100%
- kinase still bound, per cent of control (CSNK1E (human)): 100%
- kinase still bound, per cent of control (GRK4 (human)): 100%
- kinase still bound, per cent of control (PTK2 (human)): 100%
- kinase still bound, per cent of control (NEK5 (human)): 100%
- kinase still bound, per cent of control (RAF1 (human)): 100%
- kinase still bound, per cent of control [2]: 100%
- kinase still bound, per cent of control (CDKL2 (human)): 100%
- kinase still bound, per cent of control (TNK1 (human)): 100%
- kinase still bound, per cent of control (PRKACA (human)): 100%
- kinase still bound, per cent of control (CDK15 (human)): 100%
- kinase still bound, per cent of control (FGFR4 (human)): 0.75%
- kinase still bound, per cent of control (PAK1 (human)): 100%
- kinase still bound, per cent of control (MYO3B (human)): 100%

Structure (SMILES): COc1cc(N2CCN(C)CC2)ccc1Nc1ncc2c(n1)N(C)c1ccccc1C(=O)N2C
- kinase still bound, per cent of control (BRSK2 (human)): 100%
- kinase still bound, per cent of control (MAP4K4 (human)): 100%
- kinase still bound, per cent of control (EPHA4 (human)): 100%
- kinase still bound, per cent of control (ROS1 (human)): 7.6%
- kinase still bound, per cent of control (MAPK8 (human)): 100%
- kinase still bound, per cent of control (FYN (human)): 100%
- kinase still bound, per cent of control (ULK1 (human)): 2.9%
- kinase still bound, per cent of control [1]: 100%
- kinase still bound, per cent of control (MARK4 (human)): 100%
- kinase still bound, per cent of control (PRKACB (human)): 100%
- kinase still bound, per cent of control (TNIK (human)): 100%
- kinase still bound, per cent of control (SLK (human)): 100%
- kinase still bound, per cent of control (FGFR1 (human)): 100%
- kinase still bound, per cent of control (TESK1 (human)): 100%
- kinase still bound, per cent of control (ACVR2A (human)): 100%
- kinase still bound, per cent of control (ITK (human)): 100%
- kinase still bound, per cent of control (PKN1 (human)): 100%
- kinase still bound, per cent of control (RIOK3 (human)): 100%
- kinase still bound, per cent of control (CDC42BPA (human)): 100%
- kinase still bound, per cent of control (PLK4 (human)): 6.8%
- kinase still bound, per cent of control (TXK (human)): 100%
- kinase still bound, per cent of control (HIPK3 (human)): 100%
- kinase still bound, per cent of control (MAP2K6 (human)): 100%
- kinase still bound, per cent of control (SYK (human)): 100%
- kinase still bound, per cent of control (MAP4K3 (human)): 100%
- kinase still bound, per cent of control (LYN (human)): 100%
- kinase still bound, per cent of control (MINK1 (human)): 100%
- kinase still bound, per cent of control (CSNK1E (human)): 100%
- kinase still bound, per cent of control (GRK4 (human)): 100%
- kinase still bound, per cent of control (PTK2 (human)): 16%
- kinase still bound, per cent of control (NEK5 (human)): 100%
- kinase still bound, per cent of control (RAF1 (human)): 100%
- kinase still bound, per cent of control [2]: 100%
- kinase still bound, per cent of control (CDKL2 (human)): 100%
- kinase still bound, per cent of control (TNK1 (human)): 0.4%
- kinase still bound, per cent of control (PRKACA (human)): 100%
- kinase still bound, per cent of control (CDK15 (human)): 100%
- kinase still bound, per cent of control (FGFR4 (human)): 5.6%
- kinase still bound, per cent of control (PAK1 (human)): 100%
- kinase still bound, per cent of control (MYO3B (human)): 100%

Structure (SMILES): CS(=O)(=O)N1CCN(Cc2cc3nc(-c4cccc5[nH]ncc45)nc(N4CCOCC4)c3s2)CC1
- kinase still bound, per cent of control (BRSK2 (human)): 100%
- kinase still bound, per cent of control (MAP4K4 (human)): 100%
- kinase still bound, per cent of control (EPHA4 (human)): 100%
- kinase still bound, per cent of control (ROS1 (human)): 100%
- kinase still bound, per cent of control (MAPK8 (human)): 100%
- kinase still bound, per cent of control (FYN (human)): 100%
- kinase still bound, per cent of control (ULK1 (human)): 100%
- kinase still bound, per cent of control [1]: 100%
- kinase still bound, per cent of control (MARK4 (human)): 100%
- kinase still bound, per cent of control (PRKACB (human)): 100%
- kinase still bound, per cent of control (TNIK (human)): 100%
- kinase still bound, per cent of control (SLK (human)): 100%
- kinase still bound, per cent of control (FGFR1 (human)): 100%
- kinase still bound, per cent of control (TESK1 (human)): 100%
- kinase still bound, per cent of control (ACVR2A (human)): 100%
- kinase still bound, per cent of control (ITK (human)): 100%
- kinase still bound, per cent of control (PKN1 (human)): 100%
- kinase still bound, per cent of control (RIOK3 (human)): 100%
- kinase still bound, per cent of control (CDC42BPA (human)): 100%
- kinase still bound, per cent of control (PLK4 (human)): 100%
- kinase still bound, per cent of control (TXK (human)): 100%
- kinase still bound, per cent of control (HIPK3 (human)): 100%
- kinase still bound, per cent of control (MAP2K6 (human)): 100%
- kinase still bound, per cent of control (SYK (human)): 100%
- kinase still bound, per cent of control (MAP4K3 (human)): 100%
- kinase still bound, per cent of control (LYN (human)): 100%
- kinase still bound, per cent of control (MINK1 (human)): 100%
- kinase still bound, per cent of control (CSNK1E (human)): 100%
- kinase still bound, per cent of control (GRK4 (human)): 100%
- kinase still bound, per cent of control (PTK2 (human)): 100%
- kinase still bound, per cent of control (NEK5 (human)): 100%
- kinase still bound, per cent of control (RAF1 (human)): 100%
- kinase still bound, per cent of control [2]: 100%
- kinase still bound, per cent of control (CDKL2 (human)): 100%
- kinase still bound, per cent of control (TNK1 (human)): 100%
- kinase still bound, per cent of control (PRKACA (human)): 100%
- kinase still bound, per cent of control (CDK15 (human)): 100%
- kinase still bound, per cent of control (FGFR4 (human)): 100%
- kinase still bound, per cent of control (PAK1 (human)): 100%
- kinase still bound, per cent of control (MYO3B (human)): 100%
